Measured values taken from patent publication US20120301551A1, “COMPOUNDS AND COMPOSITIONS FOR TREATING NEURONAL DEATH OR NEUROLOGICAL DYSFUNCTION” (Neurotech Pharmaceuticals Co., Ltd., priority 2005, published 2012).

Assays:
Assay type in all cases: in vivo, mouse
[1] = tested on: APPswe/PS1deltaE9 double transgenic mice; experiment: Morris water maze in APPswe/PS1deltaE9 double transgenic mice; conditions: 25 mg/kg/day chemical 01 or 62.5 mg/kg/day ibuprofen for 14.5 months (3~17.5 months)
Description: After administration of 14.5 months, the cognitive function was analyzed by Morris water maze test like example 10-3-1 (mean±SEM, n=3-5).
(§1) 17.5 month-old APPswe/PS1deltaE9 double transgenic mice were fed chow alone (saline only), or containing 25 mg/kg/day of chemical—01, for […] (3˜17.5 month).
The cognitive function was analyzed by Morris water maze test. Mice ware trained to perform a hidden platform task in the Morris water maze. The latency to find the platform was recorded for each mouse.

[2] = tested on: APPswe/PS1deltaE9 double transgenic mice; experiment: brain Aβ40/Aβ42 levels in APPswe/PS1deltaE9 double transgenic mice (ELISA); conditions: 25 mg/kg/d chemical 01 or 62.5 mg/kg/day ibuprofen for 14.5 months
Description: SDS-soluble/insoluble Aβ40 or Aβ42 levels were analyzed by colorimetric sandwich ELISA kit (BIOSOURCE, Camarillo, Calif.).

[3] = tested on: APPswe/PS1deltaE9 double transgenic mice; experiment: open field activity in APPswe/PS1deltaE9 double transgenic mice; conditions: 25 mg/kg/day chemical 01 or 62.5 mg/kg/day ibuprofen for 14.5 months (3~17.5 months)
Description: After administration of drug for 14.5 months, Open field activity test was performed to evaluate locomotor activity and exploratory behavior. 4×4 of scale marks were drawn in white acryl box having a size of 60 cm×60 cm×35 cm (width×length×height) to make sixteen squares. Four squares in the center became center zone and twelve squares around the center zone became peripary zone. Mice were laid into transparent acryl tube (diameter: about 3.5 inches) laid at the left corner of the acryl box for 30 seconds. After 30 seconds, acryl tube was removed to make mouse free. Experiment was once performed for each mouse for 5 minutes. The distance traveled in the open field was recorded (mean±SEM, n=3-5).
as §1
Open field activity was used to evaluate locomotor activity and exploratory behavior. The distance traveled in the open field was recorded and performance was analyzed after the testing took place.

In the case of `CC(C)Cc1ccc(C(C)C(=O)O)cc1` (stereo not drawn) [ibuprofen, reference compound], the “escape latency / cognitive function (Morris water maze)” value [1] is reported as “did not improved cognitive function”, the “SDS-soluble/insoluble Aβ40 or Aβ42 levels, in words” value [2] is reported as “did not reduce” and the “open field activity (distance traveled)” value [3] is reported as “non-significant trend”.
